Measured values as given in patent US20130217694A1, “METHOD OF REDUCING THE SEVERITY OF INFLAMMATORY DERMATOLOGICAL CONDITIONS” (Allergan, Inc.., priority 2003, published 2013).

Key:
human α-2C receptor = biological target: T1, human α-2C receptor (Homo sapiens, UniProt P18825); assay: Inhibition of forskolin-induced cAMP accumulation in PC12 cells expressing human α-2C receptor; format: cell-based; conditions: percent efficacy relative to brimonidine
T1 construct: expressed in transfected cells; host or cells: PC12 cells (retroviral vector pCL BABE Puro)
T1 sequence (P18825 1-462): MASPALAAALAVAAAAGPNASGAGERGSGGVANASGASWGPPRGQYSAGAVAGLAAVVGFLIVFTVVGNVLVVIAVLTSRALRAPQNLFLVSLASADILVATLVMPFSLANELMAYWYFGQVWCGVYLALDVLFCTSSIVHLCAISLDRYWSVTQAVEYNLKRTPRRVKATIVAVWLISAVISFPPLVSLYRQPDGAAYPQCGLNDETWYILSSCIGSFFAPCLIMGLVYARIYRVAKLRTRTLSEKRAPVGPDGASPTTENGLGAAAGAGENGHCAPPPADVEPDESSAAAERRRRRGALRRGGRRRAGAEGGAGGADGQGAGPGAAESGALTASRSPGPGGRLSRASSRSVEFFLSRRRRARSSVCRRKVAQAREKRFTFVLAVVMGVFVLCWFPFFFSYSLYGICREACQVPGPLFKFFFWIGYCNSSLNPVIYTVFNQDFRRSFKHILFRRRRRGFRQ
Experimental: (§1) The human α-2A and α-2C receptor supernatants were added, in varying amounts, to naive PC12 cells, which were then incubated for 48 hours. The transduced cell populations were replated at a lower density and grown in media containing 100 ug/ml puromycin.
(§2) Intracellular cAMP measurement was performed as follows. PC12 cells stably expressing the human α-2A or human α-2C adrenergic receptors were plated in 96-well poly-D-lysine coated plates at a density of 30,000 cells per well in 100 μl DMEM supplemented with 10% horse serum, 5% heat inactivated fetal bovine serum, 1% antibiotic-antimycotic and 100 μg/ml puromycin. Cells were grown overnight at 37° C. and 5% CO2. Cells were dosed by adding an equal volume of media containing IBMX (to a final concentration of 1 mM), forskolin (to a final concentration of 10 μM) and the appropriate drug dilution (to a final concentration of between 10^−5 M and 10^−12 M). After a 10 minute incubation, the media was aspirated and the cells lysed with 200 μl lysis buffer (Amersham Biosciences; Piscataway, N.J.). Plates were stored at −20° C. for up to 24 hours prior to assay. Intracellular cAMP was determined using the Biotrak cAMP enzyme immunoassay system (Amersham Biosciences) according to the manufacturer's instructions. Plates were read on a plate reader at 450 nm.

[1] = biological target: T2, hamster α-1B adrenergic receptor (Mesocricetus auratus, UniProt P18841); format: cell-based; conditions: for hamster α1B % E: percent efficacy relative to phenylephrine; for agonist activity at the α-1B receptor: result in words
T2 sequence (P18841 1-515): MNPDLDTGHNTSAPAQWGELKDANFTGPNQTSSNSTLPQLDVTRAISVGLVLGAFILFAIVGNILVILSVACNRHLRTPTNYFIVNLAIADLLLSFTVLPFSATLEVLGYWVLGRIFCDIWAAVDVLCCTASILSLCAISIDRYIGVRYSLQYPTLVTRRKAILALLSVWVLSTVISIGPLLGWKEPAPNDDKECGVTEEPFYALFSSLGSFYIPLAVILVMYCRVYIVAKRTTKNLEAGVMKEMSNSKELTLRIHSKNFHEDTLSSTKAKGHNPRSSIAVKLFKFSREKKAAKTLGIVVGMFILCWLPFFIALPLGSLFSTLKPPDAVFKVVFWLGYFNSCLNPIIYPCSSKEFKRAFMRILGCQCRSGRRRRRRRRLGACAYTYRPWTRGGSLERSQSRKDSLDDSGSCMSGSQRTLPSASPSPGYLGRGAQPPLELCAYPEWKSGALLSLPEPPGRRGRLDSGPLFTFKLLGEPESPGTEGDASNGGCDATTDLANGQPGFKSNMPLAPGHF
Experimental: (§3) The bovine α-1A and hamster α-1B receptor supernatants were added, in varying amounts, to naive HEK293 cells, which were then incubated for 48 hours. The transduced cell populations were replated at a lower density and grown in media containing 0.25 ug/ml puromycin. […] Receptor density was measured in a prazosin radioligand binding assay.
(§4) Intracellular Ca^+2 responses were measured as follows in HEK293 cells stably expressing either the bovine α-1A or hamster α-1B adrenergic receptor. Between 40,000 to 50,000 cells were plated per well in 96-well poly-D-lysine coated plates in 0.2 ml DMEM containing 10% heat-inactivated fetal calf serum, 1% antibiotic-antimycotic and 0.25 μg/ml puromycin one day prior to use. Cells were washed twice with HBSS supplemented with 10 mM HEPES, 2.0 mM CaCl2 and 2.5 mM probenicid, and subsequently incubated at 37° C. for 60 minutes with 4 μM Fluo-4 (Molecular Probes; Eugene, Oreg.). The extracellular dye was washed from the plates twice prior to placing the plates in the fluorometric imaging plate reader (FLIPR; Molecular Devices; Sunnyvale, Calif.). Ligands were diluted in HBSS and aliquoted into a 96-well microplate. Drugs were tested over the concentration range of 0.64 nM to 10,000 nM. Data for Ca^+2 responses were obtained in arbitrary fluorescence units.

mice [2] = assay: Phenylephrine-induced tactile hypersensitivity in mice; format: in vivo, mouse; conditions: for tactile (mechanical) hypersensitivity score: Phenylephrine (100 ng/kg I.P.), cumulative score 0 to 16, mean ± SEM
Experimental: To dissect the contribution of the sympathetic nervous system to sensory sensitization, mouse models having different mechanisms of sensory sensitization were developed. Tactile hypersensitivity was measured in mice following intrathecal or intraperitoneal injection of an inducing agent by scoring the response to light stroking of the mouse flank with a paintbrush.
(§5) Spinal drug injections were performed as follows. Mice (20-30 g) were injected intrathecally as described in Hylden and Wilcox, Eur. J. Pharmacol. 67:313-316 (1980). Briefly, a sterile 30-gauge ½ inch needle attached to a microsyringe was inserted between the L5 and L6 vertebrae. The mouse was held firmly by the pelvic girdle in one hand, while the syringe was held in the other hand at an angle of approximately 20° above the vertebral column. The needle was inserted into the tissue to one side of the L6 spinous process, into the groove between the spinous and transverse processes. The needle angle was decreased to about 10°, and the needle slowly advanced forward into the intervertebral space until a pop was felt and there was a visible serpentine tail movement. Compounds were slowly injected in the subarachnoid space in a volume of 5 μl. Each compound was tested at multiple doses. The minimal efficacious dose was used for all subsequent experiments.
Sensitivity to light touch was quantified by scoring the response of mice to light stroking of their flanks with a small paintbrush, which is not normally painful. […] The scores were summed to generate a cumulative score of 0 to 16 as described in Minami et al., Pain 57:217-223 (1994). Statistical calculations of significance for in vivo studies were done using a two-tailed Students t-test.

[3] = biological target: T3, bovine α-1A adrenergic receptor (Bos taurus, UniProt P18130); assay: Intracellular Ca+2 response in HEK293 cells expressing bovine α-1A receptor; format: cell-based; conditions: for bovine α1A % E: percent efficacy relative to phenylephrine; for agonist activity at the α-1A receptor: result in words
T3 sequence (P18130 1-466): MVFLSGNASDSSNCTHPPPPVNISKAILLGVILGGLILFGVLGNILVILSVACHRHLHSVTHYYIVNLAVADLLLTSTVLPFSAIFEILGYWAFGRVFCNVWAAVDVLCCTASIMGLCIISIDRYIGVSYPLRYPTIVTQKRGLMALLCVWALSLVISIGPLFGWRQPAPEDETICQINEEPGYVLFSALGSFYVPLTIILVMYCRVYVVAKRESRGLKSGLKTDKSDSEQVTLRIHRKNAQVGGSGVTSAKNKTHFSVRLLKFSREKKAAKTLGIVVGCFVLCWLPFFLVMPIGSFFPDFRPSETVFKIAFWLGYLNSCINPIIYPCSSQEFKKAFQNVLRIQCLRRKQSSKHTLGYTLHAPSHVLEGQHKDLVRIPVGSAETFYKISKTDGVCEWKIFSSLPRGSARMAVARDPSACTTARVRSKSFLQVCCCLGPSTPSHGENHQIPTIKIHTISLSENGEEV
Experimental: as §3, §4

human α-2A receptor = biological target: T4, human α-2A receptor (Homo sapiens, UniProt P08913); conditions: percent efficacy relative to brimonidine
T4 sequence (P08913 1-465): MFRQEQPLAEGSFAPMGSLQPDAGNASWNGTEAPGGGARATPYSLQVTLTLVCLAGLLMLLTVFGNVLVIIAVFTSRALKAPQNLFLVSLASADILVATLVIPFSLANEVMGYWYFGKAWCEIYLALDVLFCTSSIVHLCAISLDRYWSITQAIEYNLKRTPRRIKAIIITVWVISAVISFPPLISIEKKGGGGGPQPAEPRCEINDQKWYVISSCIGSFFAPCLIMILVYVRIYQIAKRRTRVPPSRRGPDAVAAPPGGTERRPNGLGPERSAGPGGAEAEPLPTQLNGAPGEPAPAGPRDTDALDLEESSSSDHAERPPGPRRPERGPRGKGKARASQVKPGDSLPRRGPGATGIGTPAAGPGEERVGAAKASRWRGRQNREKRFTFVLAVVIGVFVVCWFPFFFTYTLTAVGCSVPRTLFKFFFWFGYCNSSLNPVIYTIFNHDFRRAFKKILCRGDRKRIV
Experimental: as §1, §2

mice [4] = assay: Sulprostone-induced tactile hypersensitivity in mice; format: in vivo, mouse; conditions: for tactile (mechanical) hypersensitivity score: Sulprostone (200 ng IT), cumulative score 0 to 16, mean ± SEM; for analgesic activity in sulprostone-induced tactile hypersensitivity: result in words
Experimental: The activity of a synthetic EP1/EP3 receptor-selective prostaglandin agonist, sulprostone, also was assayed.
as §5, with “Mice (20-30 g) were injected intrathecally as described in Hylden and Wilcox, Eur. J. Pharmacol. 67:313-316 (1980).” left out
(§6) Sensitivity to light touch was quantified by scoring the response of mice to light stroking of their flanks with a small paintbrush, which is not normally painful. […] Statistical calculations of significance for in vivo studies were done using a two-tailed Students t-test.

mice [5] = assay: NMDA-induced tactile hypersensitivity in mice; format: in vivo, mouse; conditions: for tactile (mechanical) hypersensitivity score: NMDA (100 ng IT), cumulative score 0 to 16, mean ± SEM; for inhibition of NMDA-induced tactile hypersensitivity: result in words
Experimental: as §5, with “Mice (20-30 g) were injected intrathecally as described in Hylden and Wilcox, Eur. J. Pharmacol. 67:313-316 (1980).” left out
as §6

CNC[C@H](O)c1cccc(O)c1 [Phenylephrine]
human α2C % E (human α-2C receptor): 87% | hamster α1B % E [1]: 110% | strongly tactile hypersensitivity-inducing dose (mice [2]; i.p., wildtype mice): 0.03 µg/kg | dose resulting in maximal hypersensitivity (mice [2]; i.p., α-2A knockout mice): 0.0003 µg/kg | dose resulting in maximal hypersensitivity (mice [2]; i.p., α-2C knockout mice): 0.0001 µg/kg | dose at which significant tactile hypersensitivity starts (mice [2]; intraperitoneal, wildtype mice): 0.003 µg/kg | dose at which significant tactile hypersensitivity starts (mice [2]; intrathecal, wildtype mice): 3 ng | bovine α1A % E [3]: 110%

Cc1cccc([C@H](C)c2cnc[nH]2)c1C [Dexmedetomidine]
human α2C % E (human α-2C receptor): 90% | human α2A % E (human α-2A receptor): 93% | hamster α1B % E [1]: 62% | agonist activity at the α-1B receptor [1]: partial agonists | bovine α1A % E [3]: 59% | agonist activity at the α-1A receptor [3]: partial agonists

CC12CC3CC(C)(C1)CC(N)(C3)C2.Cl [Memantine, 1-amino-3,5-dimethyladamantane hydrochloride]
tactile (mechanical) hypersensitivity score (mice [4]): 14.3 ± 0.8 | tactile (mechanical) hypersensitivity score (mice [5]): 4.2 ± 0.9 | inhibition of NMDA-induced tactile hypersensitivity (mice [5]; wildtype mice): blocked | tactile (mechanical) hypersensitivity score (mice [2]): 11.0 ± 0.7

CN[C@H](CC(=O)O)C(=O)O [NMDA]
dose of maximal tactile hypersensitivity effect (mice [5]; intrathecal, wildtype mice): 100 ng

COc1ccccc1N1CCN(CCCNc2c(C)c(=O)n(C)c(=O)n2C)CC1 [5-MU, 5-methyl urapidil]
tactile (mechanical) hypersensitivity score (mice [4]): 12.0 ± 1.0 | tactile (mechanical) hypersensitivity score (mice [5]): 13.3 ± 0.8 | tactile (mechanical) hypersensitivity score (mice [2]): 5.0 ± 1.0 | inhibition of phenylephrine-induced tactile hypersensitivity (mice [2]; wildtype mice, result in words): block the hypersensitive response

COc1cc2nc(N3CCN(C(=O)c4ccco4)CC3)nc(N)c2cc1OC [Prazosin]
analgesic activity in sulprostone-induced tactile hypersensitivity (mice [4]; wildtype mice): no analgesic activity | analgesic activity in sulprostone-induced tactile hypersensitivity (mice [4]; α-2C knockout mice): no analgesic activity

CS(=O)(=O)NC(=O)CCC/C=C\C[C@H]1C(=O)C[C@@H](O)[C@@H]1/C=C/[C@@H](O)COc1ccccc1 [Sulprostone]
maximal dose for tactile hypersensitivity (mice [4]; intrathecal, wild-type and α-2C knockout mice): 200 ng | maximally effective dose for tactile hypersensitivity (mice [4]; intrathecal, α-2A knockout mice): 30 ng

NCC1(CC(=O)O)CCCCC1 [Gabapentin]
tactile (mechanical) hypersensitivity score (mice [4]): 3.2 ± 0.5 | analgesic activity in sulprostone-induced tactile hypersensitivity (mice [4]; wildtype mice): inhibited tactile hypersensitivity | tactile (mechanical) hypersensitivity score (mice [5]): 3.7 ± 0.8 | inhibition of NMDA-induced tactile hypersensitivity (mice [5]; wildtype mice): inhibited tactile hypersensitivity | tactile (mechanical) hypersensitivity score (mice [2]): 13.0

Clc1ccc2nsnc2c1NC1=NCCN1 [Tizanidine]
human α2C % E (human α-2C receptor): 85% | human α2A % E (human α-2A receptor): 93% | hamster α1B % E [1]: 61% | agonist activity at the α-1B receptor [1]: partial agonists | bovine α1A % E [3]: 63% | agonist activity at the α-1A receptor [3]: partial agonists

CCN(Cc1cc(Br)ccc1OCc1ccccc1)c1ccc(C(=O)O)cn1 [EP1 antagonist]
tactile (mechanical) hypersensitivity score (mice [4]): 4.0 ± 1.2 | analgesic activity in sulprostone-induced tactile hypersensitivity (mice [4]; wildtype mice): completely blocked | tactile (mechanical) hypersensitivity score (mice [5]): 11.4 ± 1.53 | tactile (mechanical) hypersensitivity score (mice [2]): 9.8 ± 0.7
